From the supplement of paper PMC10307832

How the values were obtained:
Test in all cases: relative viability (nuclei count vs DMSO), 5 days (fraction); higher = more cells survive
[1] = compound: C1/C(=C\C2=CC=CS2)/C(=O)/C(=C/C3=CC=CS3)/C1 + CS(=O)(=O)N1CCN(Cc2cc3nc(-c4cccc5[nH]ncc45)nc(N4CCOCC4)c3s2)CC1 [Pictilisib] (partner 1 µM)
How it was run: (§1)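 Medians of duplicate plates are given as relative viability. That measure is the nuclei count in treated wells divided by the count in vehicle wells. Counts were taken on 4× images of lung cancer cell lines in 1536-well plates, 5 days after pin-tool dosing the day after seeding with one drug alone or a fixed anchor-drug dose plus five library-drug doses (not always all listed) in √10 steps.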

[2] = compound: C1=CC(=CC=C1C2=CC(=C(S2)NC(=O)N)C(=O)N)F [TPCA-1] + Cc1nc(NC(=O)N2CCC[C@H]2C(N)=O)sc1-c1ccnc(C(C)(C)C(F)(F)F)c1 [Alpelisib] (partner 2 µM)
How it was run: as §1

[3] = compound: C1/C(=C\C2=CC=CS2)/C(=O)/C(=C/C3=CC=CS3)/C1 + C[C@]1(O)C[C@@H](c2nc(-c3ccc4ccc(-c5ccccc5)nc4c3)c3c(N)nccn32)C1 [Linsitinib] (partner 1 µM)
How it was run: as §1

[4] = compound: C[C@]12O[C@H](C[C@]1(O)CO)n1c3ccccc3c3c4c(c5c6ccccc6n2c5c31)CNC4=O [Lestaurtinib] + CC(C)C[C@H](NC(=O)[C@H](Cc1ccccc1)NC(=O)c1cnccn1)B(O)O [Bortezomib] (partner 0.002 µM)
How it was run: as §1

Cell Line: UMC-11
- relative viability ([1]; first compound 0.2 µM): 0.829
- relative viability ([1]; first compound 0.6325 µM): 0.962
- relative viability ([1]; first compound 2 µM): 0.934
- relative viability ([1]; first compound 20 µM): 0.758
- relative viability ([2]; first compound 0.04 µM): 0.988
- relative viability ([2]; first compound 0.1265 µM): 0.946
- relative viability ([2]; first compound 0.4 µM): 1.05
- relative viability ([2]; first compound 1.265 µM): 0.96
- relative viability ([2]; first compound 4 µM): 0.731
- relative viability ([3]; first compound 0.2 µM): 1.02
- relative viability ([3]; first compound 0.6325 µM): 1.07
- relative viability ([3]; first compound 2 µM): 1.03
- relative viability ([3]; first compound 20 µM): 1
- relative viability ([4]; first compound 0.005 µM): 0.602
- relative viability ([4]; first compound 0.01581 µM): 0.621
- relative viability ([4]; first compound 0.05 µM): 0.321
- relative viability ([4]; first compound 0.1581 µM): 0.299
- relative viability ([4]; first compound 0.5 µM): 0.171
